B1: OVA: OVA protein (EndoFit Ovalbumin: from InvivoGen), model antigen (protein, UniProt P01012 2-386, looked up)
Ovalbumin: GSIGAASMEFCFDVFKELKVHHANENIFYCPIAIMSALAMVYLGAKDSTRTQINKVVRFDKLPGFGDSIEAQCGTSVNVHSSLRDILNQITKPNDVYSFSLASRLYAEERYPILPEYLQCVKELYRGGLEPINFQTAADQARELINSWVESQTNGIIRNVLQPSSVDSQTAMVLVNAIVFKGLWEKAFKDEDTQAMPFRVTEQESKPVQMMYQIGLFRVASMASEKMKILELPFASGTMSMLVLLPDEVSGLEQLESIINFEKLTEWTSSNVMEERKIKVYLPRMKMEEKYNLTSVLMAMGITDVFSSSANLSGISSAESLKISQAVHAAHAEINEAGREVVGSAEAGVDAASVSEEFRADHPFLFCIKHIATNAVLFFGRCVSP

Legend:
CD80 = experiment: Evaluation of stimulus to activate innate immune system: expression of CD80 in cultured mice spleen cells (flow cytometry); conditions: for CD80 MFI, Amphipathic substance: amphipathic substance alone; for fluorescence intensity of CD80PE compared with PBS: solution (5 μL) of sample added alone: peptide, OVA 800 μg/mL, DLPC 1000 nmol/mL, deoxycholic acid 1600 nmol/mL, FIG. 8(B)
Method: The evaluation of stimulus to activate innate immune system was performed as follows.
A spleen was harvested from C57BL/6N mice. The harvested spleen was injected with 500 μL of collagenase solution, 2 mg/mL (prepared with RPMI medium) followed by incubation at 37° C. for 30 minutes. The spleen was made into cell suspension by treatment with BD Falcon cell strainer. The cells underwent hemolysis with RBC lysis buffer, followed by washing with RPMI medium. The cells were dispersed into RPMI medium, and the number of cells was counted. The cells were used for the subsequent procedure.
The cells were inoculated into a 96-well dish such that 1.0×10^6 cells/100 μL. The cell dispersion was given 100 μL of RPMI medium containing a dispersion of different kind, followed by incubation overnight. These procedures were performed by using serum-free RPMI medium.
The cells were recovered and washed with BD stain buffer. Then, the cells underwent incubation together with Anti-CD11cFITC, 0.25 μg/100 μL (4° C. for 30 minutes), so that the cells were stained. After washing, the cells underwent again incubation with Anti-CD80PE, Anti-CD86PE, or Anti-CD40PE, 0.25 μg/100 μL (4° C. for 30 minutes), so that the cells were stained. After washing at least more than three times, the cells were evaluated by using the flow cytometer (Cytomics FC500, Software: CXP software ver. 2).

[1] = Release test: measurement of leakage
Method: The term “Membrane disruptive function” denotes the function to bring about release in the release test. The release test described in this specification is a test comprising or consisting of adding liposomes (dispersion) encapsulating an aqueous solution containing a quenching substance and a fluorescent substance and a dispersion of a sample for evaluation to a properly pH-adjusted aqueous solution, incubating the resulting aqueous solution at 37° C. for 90 minutes or 30 minutes, and measuring the fluorescence intensity of the incubated aqueous solution. This method permits the measurement of the amount of the fluorescent substance which has been released from the liposomes. […] The release test will be described in more detail in the Examples.
The evaluation was performed with the help of EYPC liposomes which contain Pyranine (as a fluorescent substance) and DPX (as a quencher).
EYPC (3000 nmol) dissolved in chloroform was measured and placed in a 10-mL eggplant-shaped flask, and the EYPC was made into thin film with a rotary evaporator. To the flask was added a Pyranine solution (500 μL), which is composed of Pyranine (35 mM), DPX (50 mM), and MES (25 mM), and has pH 7.4. The thin film in the flask was dispersed with the help of an ultrasonic irradiator (USC-J). The resulting dispersion was passed through a porous polycarbonate film having a pore diameter of 100 nm with the help of an extruder, so as to make the particle size uniform. The resulting dispersion underwent substitution of the outer aqueous layer with the help of MES Buffer and G100 column. Thus, there was obtained a dispersion of EYPC liposomes encapsulating the fluorescent substance. The concentration of the lipid was determined with the help of phospholipid C-test Wako, and then it was adjusted with MES Buffer so that phospholipid became 1.0 mmol/L.
The dispersion of EYPC liposomes (with its concentration adjusted) in an amount of 20 μL and the dispersion of a sample for evaluation in an amount of 20 μL were added to MES Buffer (with its pH adjusted) in an amount of 2960 μL. The resulting mixture underwent incubation at 37° C. for 90 or 30 minutes. Values resulting from incubation for 90 minutes are adopted in the Examples, unless otherwise indicated.
The leakage was calculated assuming that the sheer dispersion of EYPC liposomes has 0% and the dispersion of EYPC liposomes incorporated with 30 μL of 10-fold diluted Triton-X100 has 100%. Specifically, the leakage was calculated from the following formula, L denotes the intensity of fluorescence measured, L0 denotes the intensity of fluorescence of the sheer dispersion of EYPC liposomes containing the fluorescent substance, and L100 denotes the intensity of fluorescence of the dispersion of EYPC liposomes incorporated with Triton-X100.

[2] = test system: CTL (IFNγ-secreting cells/total CD8 positive cells); experiment: Evaluation of CTL induction rate, ICS method, after immunization of mice; type: in vivo, C57BL/6N mice; design: key to CTL induction rate, Low MPL / CTL induction rate, High MPL: ratio of IFNγ-secreting cells to total CD8 positive cells; conditions: for CTL induction rate, High MPL: high MPL (22.7); for CTL induction rate, High MPL / CTL induction rate, Low MPL: n=3; for CTL induction rate, Low MPL: low MPL (0.0227)
Method: Administration (100 μL/head) was performed by subcutaneous injection at one position on the back under anesthesia. […] For evaluation of cell-mediated immunity, administration was performed once and the assay was performed seven days after administration. For evaluation of humoral immunity, administration was performed twice. The second administration was performed 14 days after the first administration, and assay was performed seven days after the second administration.
The mice were sacrificed on the seventh day after the last administration and had its spleen harvested. The spleen was given RPMI medium (3.0 mL) containing 10% serum and then treated by the BD Falcon cell strainer. Thus there was obtained a suspension of cells. […] The cells were dispersed into RPMI medium containing 10% serum. The number of cells was counted. Thus there was obtained a dispersion of spleen cells.
For restimulation of the antigen, 10% serum-containing RPMI medium (100 μL) containing OVA peptide (40 μg/mL) was added, followed by incubation for three hours. Then, BD GolgiPlug was added such that its concentration was 0.2 μL/100 μL. Cell culture was performed overnight. In the case where the restimulation was not given, a 10% serum-containing RPMI medium not containing OVA peptide was used.
After washing, the cells were stained with Anti-CD8aPE (at 4° C. for 30 minutes), followed by washing again. Then the cells were permeabilized with Cytofix/Cytoperm. After washing, the cells were stained with Anti-IFNγFITC (at 4° C. for 30 minutes). […] CTL induction rate was calculated in terms of the ratio between the IFNγ secreting cells and the total CD8 positive cells.
It is known that MPL activates innate immune system and functions as an adjuvant even when used alone. It is also known that MPL induces cell-mediated immunity. Thus, a comparison was made as to the induction of cell-mediated immunity between MPL used alone and MPL used in combination with a pH-sensitive carrier in the form of the adjuvant composition. Each of the MPL and the adjuvant composition is administered together with an antigen. […] The above-mentioned solution or dispersion was subcutaneously administered once to the back of C57BL/6N mice, and the CTL induction rate was obtained according to the ICS method. The CTL induction rate is expressed in terms of the ratio of the IFNγ-secreting cells to the total CD8 positive cells in a specific area which is hardly affected by dead cells (IFNγ-secreting cells/total CD8 positive cells).

[3] = antigen peptide 3.2 μg, DLPC, deoxycholic acid (160 nmol), subcutaneous once
[4] = antigen peptide 16 μg, DLPC, deoxycholic acid (160 nmol), subcutaneous once
[5] = antigen peptide 80 μg, DLPC, deoxycholic acid (160 nmol), subcutaneous once
[6] = antigen peptide 400 μg, DLPC, deoxycholic acid (160 nmol), subcutaneous once
[7] = Table 2, pH-sensitive substance alone

Molecule	CD80 MFI, Amphipathic substance (CD80)	leakage, Alone, pH 5.0 ([1]; Table 1, substance alone)	leakage, Alone, pH 7.4 ([1]; Table 1, substance alone)	leakage, Alone, pH 5.0 [1, 7]	leakage, Alone, pH 7.4 [1, 7]	further results
CCCCCCCCCCCC(=O)OC[C@H](COP(=O)([O-])OCC[N+](C)(C)C)OC(=O)CCCCCCCCCCC [DLPC, 1,2-dilauroyl-sn-glycero-3-phosphatidylcholine]	38.5 ± 2.9%	5.5 ± 0.9%	1.8 ± 1.2%	–	–	fluorescence intensity of CD80PE compared with PBS (CD80): remained unchanged from that in the case where PBS was added
Monophosphoryl lipid A [MPL alone]	–	–	–	–	–	CTL induction rate (%), Adjuvant composition (with antigen not restimulated) ([2]; DLPC with pH-sensitive compound 160 nmol, MPL content 0.227, OVA (80 μg), dispersion, n=1, antigen not restimulated): 0.14%; CTL induction rate (%), Adjuvant composition ([2]; DLPC with pH-sensitive compound 160 nmol, MPL content 0.227, OVA (80 μg), dispersion, n=1, antigen restimulated): 0.25%; CTL induction rate by adjuvant composition (%), Antigen: OVA ([2]; antigen OVA (80 μg), DLPC, MPL content 0.227, deoxycholic acid amount (nmol) varied, dispersion, n=1): 0.18%; CTL induction rate by adjuvant composition (%), Antigen: peptide ([2]; antigen peptide (80 μg), DLPC, MPL content 0.227, deoxycholic acid amount (nmol) varied, dispersion, n=1): 0.22%; CTL induction rate ([2]; antigen peptide (80 μg), MPL content 0.227 or equivalent, DLPC, deoxycholic acid (160 nmol), subcutaneous once, FIGS. 3 and 4): 0.27%; CTL induction rate, High MPL [2, 3]: 0.45; CTL induction rate, High MPL [2, 4]: 0.36; CTL induction rate, High MPL [2, 5]: 0.37; CTL induction rate, High MPL [2, 6]: 0.58; CTL induction rate, Low MPL [2, 3]: 0.14; CTL induction rate, Low MPL [2, 4]: 0.31; CTL induction rate, Low MPL [2, 5]: 0.26; CTL induction rate, Low MPL [2, 6]: 0.46; CTL induction rate (%), Amphipathic substance-MPL ([2]; mixed thin film of amphipathic substance (100 nmol) and MPL (0.227) dispersed in antigen solution, OVA (80 μg), n=1): 0.20%; leakage at a low pH value compared with PBS alone ([1]; MPL (dispersed in PBS or DMSO) in an amount equivalent to MPL content 0.227, FIG. 9(A)): equivalent to that in the case where PBS was used alone
CC(CCC(=O)NCC(=O)O)C1CCC2C3CCC4CC(O)CCC4(C)C3CC(O)C12C (stereo not shown) [Glycodeoxycholic acid]	–	–	–	9.8 ± 0.8%	1.9 ± 1.2%	–
C[C@H](CCC(=O)O)[C@H]1CC[C@H]2[C@@H]3C[C@H](O)[C@@H]4C[C@H](O)CC[C@]4(C)[C@H]3CC[C@]12C [Hyodeoxycholic acid]	–	–	–	12.6 ± 0.4%	4.2 ± 0.9%	–
CC1(C)[C@@H](O[C@H]2O[C@H](C(=O)O)[C@@H](O)[C@H](O)[C@H]2O[C@@H]2O[C@H](C(=O)O)[C@@H](O)[C@H](O)[C@H]2O)CC[C@]2(C)[C@H]3C(=O)C=C4[C@@H]5C[C@@](C)(C(=O)O)CC[C@]5(C)CC[C@@]4(C)[C@]3(C)CC[C@@H]12 [Glycyrrhizinic acid]	–	–	–	16.7 ± 2.9%	4.2 ± 1.2%	–
CCCCCCCCCC(=O)OC[C@H](COP(=O)([O-])OCC[N+](C)(C)C)OC(=O)CCCCCCCCC [DDPC, 1,2-didecanoyl-sn-glycero-3-phosphatidylcholine]	36.5 ± 1.1%	37.1 ± 1.3%	17.4 ± 0.1%	–	–	–
CCCCCCCCCCCC(=O)OCCOCCOCCOCCOCCOCCOCCOCCOCCOCCOCCOCCOCCOCCOCCOCCOCCOCCOCCOCCOCC(OCCOCCOCCOCCOCCOCCOCCOCCOCCOCCOCCOCCOCCOCCOCCOCCOCCOCCOCCOCCO)C1OCC(OCCOCCOCCOCCOCCOCCOCCOCCOCCOCCOCCOCCOCCOCCOCCOCCOCCOCCOCCOCCO)C1OCCOCCOCCOCCOCCOCCOCCOCCOCCOCCOCCOCCOCCOCCOCCOCCOCCOCCOCCOCCO (stereo not shown) [Tween 20, polyoxyethylene sorbitan monolaurate ester]	38.0 ± 3.2%	74.0 ± 2.0%	70.4 ± 3.9%	–	–	–
C[C@H](CCC(=O)O)[C@H]1CC[C@H]2[C@@H]3[C@H](O)C[C@@H]4C[C@H](O)CC[C@]4(C)[C@H]3CC[C@]12C [Chenodeoxycholic acid]	–	–	–	14.1 ± 0.9%	0.7 ± 0.5%	–
sorbitan oleic acid ester [Span 80]	39.6 ± 1.8%	18.1 ± 1.0%	6.1 ± 0.6%	–	–	–
Cc1c(C)c2c(c(C)c1O)CCC(C)(CCCC(C)CCCC(C)CCCC(C)C)O2 (racemic) [α-tocopherol, DL-α-tocopherol]	43.8 ± 4.9%	10.6 ± 1.3%	5.5 ± 0.3%	–	–	–
B1	–	–	–	–	–	fluorescence intensity of CD80PE compared with PBS (CD80): remained unchanged from that in the case where PBS was added
